We go through twelve compounds from US8486381B2, “Methods of modulating intestinal fluid balance” (Amgen Inc., priority 2005, dated 2013).

“Also recorded” adds a separate entry of the source. Counter-ions that a name gives are not always drawn. Like-named read-outs stand apart in the source and are kept apart here.

The test system of data set [1] is proximal and distal colon crypts. The data set is classed as cell-based, Sprague-Dawley rats.
For data set [2], the system named is proximal or distal colon segments. The class given is cell-based, Sprague-Dawley rats.
Data set [3] concerns isolated rat colonic crypts. Put plainly: Net fluid movement (Jv) in in vitro perfused rat colonic crypts. The data set is classed as cell-based. To be noted: for EC50: Rattus norvegicus, read-out: EC50, attenuation of forskolin-induced net fluid secretion, forskolin 10 μM, 0.1 mM Ca^2+; for Effect on net fluid secretion in presence of forskolin and PLC inhibitor U73122: U73122 10 μM, 0.1 mM calcium.

In data set [4] the test system is basolateral Cl^− entry into colonic crypt cells via NKCCl. Put plainly: Cell Cl^− influx measurements (MQAE fluorescence) in colonic crypts. The data set is classed as cell-based, rat. The protocol: Cl^− Measurements. Cell Cl^− influx measurements (Egan, M. E. et al. Nat. […] Molecular Probes]. After dye loading, crypts were incubated in a Cl^− free HEPES buffer until stable high baseline fluorescence intensity was achieved. Rates of cell Cl^− influx were monitored as rates of reductions in arbitrary MQAE fluorescent units (ΔAFU/min; Ex: 346 nm; EM: 460 nm).

For data set [5], the system named is rat colonic crypts. As to the kind of experiment: Absorptive fluid movement (netJv with secretion inhibited) in perfused rat colonic crypts. The data set is classed as cell-based.
The subject of data set [6] is apical NHE (Na^+/H^+ exchanger). As to the kind of experiment: NHE activity: Na^+-dependent proton extrusion from colonocytes. The class given is cell-based, rat. Conditions: forskolin present. From the text:
Cyclic nucleotide-dependent fluid loss in secretory […] occurs through reduction in absorptive, and increases in secretory, processes. Lucas, M. L. J. Appl. Microbiol. 90, 7-26, 2001; Golin-Bisello, F. et al. Am. J. Cell. Physiol. 289, […]-[…], 2005. Colonic epithelial crypts provide a model for understanding intestinal fluid transport as they simultaneously absorb and secrete fluid with the direction of net fluid movement (^netJv) depending on the relative magnitudes of these two processes. A major component of fluid absorption in the colon is mediated by parallel Na^+/H^+ (sodium-hydrogen exchanger, NHE) and Cl^-/HCO3^- exchange located at the apical plasma membranes. Kunzelman, K. et al. Physiol. Rev. 82, 245-289, 2002; Donowith, M. et al. Annu. Rev. Physiol. 48, 135-150, 1986. Cyclic nucleotides reduce this Na^+-dependent fluid absorption by inhibiting NHE activity. […] This basal fluid was likely due to the low levels of cell cyclic nucleotides that remain even in the absence of secretagogues. […] To examine if this latter effect of CaSR agonists on fluid absorption resulted from enhanced apical NHE activity, the effects of Ca^2+ on Na^+-dependent proton extrusion from colonocytes were assessed in the presence of forskolin. […] Cell acid loading was accomplished by exposure to NH4Cl and Na^+-dependent cell pH recovery following removal of NH4Cl was assessed as an index of Na^+/H^+ activity. […]

The test system of data set [7] is cyclic AMP. As to the kind of experiment: Secretagogue-stimulated cyclic AMP accumulation in colonic crypt cell suspensions. The data set is classed as cell-based.
The test system of data set [8] is colonic crypts from Casr^+/+:Gcm2^+/+ mice. Put plainly: Net Jv in perfused colonic crypts from wild type mice. To be noted: for Effect on net fluid secretion induced by Guanylin and CTX: Casr^+/+:Gcm2^+/+. The data set is classed as cell-based.
Data set [9] has as its system colonic crypts from Casr^−/−:Gcm2^−/− mice. Put plainly: Net Jv in perfused colonic crypts from CaSR null mice. The class given is cell-based. To be noted: for Effect on net fluid secretion induced by Guanylin and CTX: Casr^−/−:Gcm2^−/−.
Data set [10] deals with BALB/c mice. Conditions: mouse, in vivo.
Data set [11] deals with BALB/c mice. To be noted: mouse, in vivo. The source holds these as a separate data set.
In data set [12] the test system is cyclic GMP. As to the kind of experiment: Secretagogue-stimulated cyclic GMP accumulation in colonic crypt cell suspensions. The class given is cell-based. To be noted: IBMX 1 mM.
Setting [13] is: extracellular calcium raised from 0.1 mM to 2 mM.

As to `NC1=N[C@H](O)[C@H]2[C@H]3O[C@]4(O)O[C@@H]([C@@H](O)[C@@]2(N1)[C@@H]4O)[C@]3(O)CO` [TTX, tetrodotoxin], the “Effect on forskolin-induced net fluid secretion” value in data set [1] was “did not change the ability of forskolin to induce a net fluid secretion”. For the same compound, the “Effect on ability of calcimimetics to reverse forskolin-stimulated increase in Isc” value in data set [2] is recorded as “abolished”.

The EC50 is the concentration giving half of the maximal effect. In the case of `COc1cccc(C(C)NCCCc2ccccc2Cl)c1` (stereo not drawn) [Compound A, S-stereoisomer, N-(3-[2-chlorophenyl]-propyl)-α-methyl-3-methoxybenzylamine HCl], the EC50 was 0.619 nM in [3] (compound in bath) and 0.756 nM in data set [3] (compound in lumen).

Regarding `CCCCNc1cc(C(=O)O)cc(S(N)(=O)=O)c1Oc1ccccc1` [bumetanide], the “Effect on forskolin-stimulated increase in cell Cl^−” value in data set [4] (100 μM basolateral) was “abolished”. In [5] (added to basolateral bath), the “netJv in the absence of secretagogues” value is reported as “increased the positive or absorptive ^netJv”.

On to `[Ca+2]` [Ca^2+], for which the “Effect on Cl^− entry via NKCCl in the presence of CTX” value in data set [4] (calcium increased from 0.1 to 2 mM) is “inhibited Cl^− entry”. In addition, in [6] (basolateral bath Ca^2+ raised from 0.1 to 2 mM), the “Increase in NHE activity” value is given as 8 fold. For the same compound, the “Effect on forskolin or cholera toxin induced cyclic AMP production” value in [7] was “attenuates”. Moreover, in data set [3], the “Effect on net fluid secretion induced by Guanylin or STa” value is “reversed net fluid secretion” and the “Effect on net fluid secretion induced by forskolin or cholera toxin” value is given as “reversed net fluid secretion”. In addition, the “Effect on net fluid secretion induced by Guanylin and CTX” value (“Effect … by Guanylin and CTX” for short) in data set [8] (setting [13]) is “reversed net fluid secretion”. The “Effect on cAMP-mediated reduction in fluid absorption” value in data set [5] (extracellular Ca^2+ increased to 2 mM) is listed as “significantly abrogated”. In addition, in data set [9] (setting [13]), the “Effect … by Guanylin and CTX” value is listed as “did not”.

As for `CCCC(=O)Nc1ncnc2c1ncn2[C@@H]1O[C@@H]2COP(=O)(O)O[C@H]2[C@H]1OC(=O)CCC` [db-cyclic AMP, dibutyryl-cAMP], the Absorptive fluid movement result in data set [5] (in the presence of bumetanide) was “substantially reduced”.

As for `COc1ccc(CNC(C)c2ccccc2)cc1-c1ccc(C(F)(F)F)cc1` (stereo not shown) [Compound B, N-((6-(methyloxy)-4′-(trifluoromethyl)-1,1′-biphenyl-3-yl)methyl)-1-phenylethanamine], in data set [10], the “Mortality 24 hrs (moribund)” value is 2/5 and the “Volume of fluid accumulating in the small intestine” value is given as “dose-dependent reduction”. The “Cholera toxin-induced gastrointestinal fluid accumulation” value in data set [11] is given as “statistically significant reduction”.

On to Guanylin, for which the “Net fluid movement (Jv) on exposure to secretagogue” value in data set [3], in [8] and in [9] was “induced net fluid secretion” in each case.

Take `COc1cccc([C@@H](C)NCCCc2ccccc2Cl)c1.Cl` [Compound A, N-(3-[2-chlorophenyl]-propyl)-R-α-methyl-3-methoxybenzylamine HCl]: the “Effect on rate of forskolin-stimulated Cl^− entry” value in data set [4] (100 nM in basolateral fluid) is listed as “significantly reduced”. Further, the “Increase in NHE activity” value in data set [6] (Compound A added to the 2 mM Ca^2+-containing bath) stood at 12 fold. Also, the values for the 50% effective concentration (EC50) in [3] (compound in bath) and in data set [3] (compound in lumen) were 0.0051 nM and 0.0234 nM, respectively. Besides, the “Effect on net fluid secretion in presence of forskolin and PLC inhibitor U73122” value in data set [3] (compound added to both luminal and bath) was “did not completely reverse net fluid secretion”; in data set [3] (compound added to lumen or bath), “had no significant effect on reversing net fluid secretion”. The “Effect … by Guanylin and CTX” value in data set [8] (100 nM, 0.1 mM calcium) is “effectively reversed net fluid secretion”; in data set [9] (100 nM, 0.1 mM calcium), “did not reverse net fluid secretion”. Further, the “Effect on forskolin-induced net fluid secretion in presence of TTX” value in data set [1] was “attenuated forskolin-induced net fluid secretion”. The “Effect on cAMP-mediated reduction in fluid absorption” value in data set [5] (added to basolateral bath in the presence of 0.5 mM calcium) is “significantly abrogated”.

As to `C=C[C@@]1(C)CC(=O)[C@]2(O)[C@@]3(C)[C@@H](O)CCC(C)(C)[C@@H]3[C@H](O)[C@H](OC(C)=O)[C@@]2(C)O1` [forskolin], in data set [1], the “Mean Jv, distal colonic crypts” value is listed as −0.33±0.01 nL/min/mm and the “Mean Jv, proximal colonic crypts” value is recorded as −0.32±0.02 nL/min/mm.

On to `CC(C)Cn1c(=O)n(C)c(=O)c2[nH]cnc21` [IBMX, 3-Isobutyl-1-Methylxanthine], for which the “Effect on attenuation of cyclic AMP production by 2.0 mM Ca^2+” value in data set [7] (IBMX added (1 mM per method)) is “reverses this effect”. In data set [12], the “Effect on attenuation of cyclic GMP production by 2.0 mM Ca^2+” value is “reverses this effect”.

As for cholera toxin, the “cAMP production on exposure to secretagogue” value in [7] is given as “induce cAMP production; also recorded: induce cyclic AMP production”. The “Net fluid movement (Jv) on exposure to secretagogue” value in data set [3], in data set [8] and in data set [9] was “induced net fluid secretion” in each case.

Compound `Cn1c(NC[C@@H](N)Cc2ccccc2)nc(-c2ccncc2)c(-c2ccc3ccccc3c2)c1=O` [Compound C, 2-(((2S)-2-amino-3-phenylpropyl)amino)-3-methyl-5-(2-naphthalenyl)-6-(4-pyridinyl)-4(3H)-pyrimidinone] came in with a Mortality in data set [10] (female, BALB/c) of 100%.
